Measured values: US8637536B2, “Pyrimidinone compounds for use in the treatment of diseases or conditions mediated by Lp-PLA2” (Glaxo Group Limited, priority 2010, dated 2014)
Where a name gives a salt, the structure may show the parent alone. Read-outs that look alike come from different tables or passages of the source.

Molecular target: T1, recombinant human Lp-PLA2 (Homo sapiens, UniProt Q13093)
T1 sequence (Q13093 22-441): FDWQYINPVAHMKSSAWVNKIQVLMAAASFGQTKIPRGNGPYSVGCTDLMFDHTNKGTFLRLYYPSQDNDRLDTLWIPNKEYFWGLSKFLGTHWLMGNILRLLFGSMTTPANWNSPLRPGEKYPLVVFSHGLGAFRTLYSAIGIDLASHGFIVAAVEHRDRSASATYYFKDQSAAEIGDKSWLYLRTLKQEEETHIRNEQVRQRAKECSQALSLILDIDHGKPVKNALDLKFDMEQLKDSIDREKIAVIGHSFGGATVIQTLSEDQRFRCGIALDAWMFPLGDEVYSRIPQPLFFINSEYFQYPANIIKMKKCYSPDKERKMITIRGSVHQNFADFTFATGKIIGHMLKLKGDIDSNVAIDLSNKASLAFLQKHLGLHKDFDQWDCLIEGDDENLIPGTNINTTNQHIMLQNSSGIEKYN
Experiment: Recombinant human Lp-PLA2 assay (rhLp-PLA2, PED6 assay)
Format: biochemical
Description: (1) Recombinant Human Lp-PLA2 Assay (rhLp-PLA2) (Also Referred to as “PED6” Assay)
N-((6-(2,4-dinitrophenyl)amino)-hexanoyl)-2-(4,4-difluoro-5,7-dimethyl-4-bora-3a,4a-diaza-s-indacene-3-pentanoyl)-1-hexadecanoyl-sn-glycero-3-phosphoethanolamine, triethylammonium salt (PED6) is a commercially available fluorescently-labelled phospholipid, which is commercially available from Molecular Probes. There is a quenching […] position and a Bodipy fluorescein (FL) group in the sn2 position.
The PED6 assay was run as an unquenched 10 μL assay. Compounds source plate was prepared by making 1:3 (by volume) serial dilution of the compounds into pure DMSO on 384-well microplate. […] 5 μL of recombinant human Lp-PLA2 enzyme (2 nM rhLp-PLA2 in assay buffer of 50 mM HEPES, pH7.4, 150 mM NaCl, 1 mM CHAPS) was added to each well of the plate with compounds. Plates were centrifuged for 10 sec at 500 rpm. […] Plates were centrifuged for 10 sec at 500 rpm. Plate was covered to protect from light and incubated for 20 min at room temperature. […] PIC50 data, curve and QC analysis was conducted by using XL fit module in Excel.

[1] = text thresholds, upper limit for pIC50 in this assay is 9.3, read-out: pIC50 values in the PED6 assay (converted)
[2] = upper limit for pIC50 obtained in this PED6 assay is 9.3, read-out: rhLp-PLA2 (PED6 assay) (pIC50) (converted)

SMILES	IC50 [1]	IC50 [2]
Cn1cc(Cc2cncnc2)c(=O)nc1OCCc1cc(F)c(Oc2ccc(Cl)c(C(F)(F)F)c2)c(F)c1 [E30, 2-{[2-(4-{[4-Chloro-3-(trifluoromethyl)phenyl]oxy}-3,5-difluorophenyl)ethyl]oxy}-1-methyl-5-(5-pyrimidinylmethyl)-4(1H)-pyrimidinone]	≤ 1 nM	–
COc1ncc(Cc2c[nH]c(SCc3ccc(Oc4ccc(F)c(C(F)(F)F)c4)c(C#N)c3)nc2=O)cn1 [E89, 2-{[4-fluoro-3-(trifluoromethyl)phenyl]oxy}-5-{[(5-{[2-(methyloxy)-5-pyrimidinyl]methyl}-4-oxo-1,4-dihydro-2-pyrimidinyl)thio]methyl}benzonitrile]	≤ 1 nM	–
CCc1cn(C)c(SCc2ccc(Oc3ccc(Cl)c(C(F)(F)F)c3)c(C#N)c2)nc1=O [E64, 2-{[4-chloro-3-(trifluoromethyl)phenyl]oxy}-5-{[(5-ethyl-1-methyl-4-oxo-1,4-dihydro-2-pyrimidinyl)thio]methyl}benzonitrile]	≤ 10 nM	–
O=c1nc(OCCc2cc(F)c(Oc3ccc(Cl)c(C(F)(F)F)c3)c(F)c2)[nH]cc1Cc1cncnc1 [E29, 2-{[2-(4-{[4-Chloro-3-(trifluoromethyl)phenyl]oxy}-3,5-difluorophenyl)ethyl]oxy}-5-(5-pyrimidinylmethyl)-4(1H)-pyrimidinone]	≤ 1 nM	–
Cn1cc(Cc2cn(C)c(SCc3ccc(Oc4ccc(F)c(C(F)(F)F)c4)c(C#N)c3)nc2=O)cn1 [E60, 2-(4-fluoro-3-(trifluoromethyl)phenoxy)-5-(((1-methyl-5-((1-methyl-1H-pyrazol-4-yl)methyl)-4-oxo-1,4-dihydropyrimidin-2-yl)thio)methyl)benzonitrile, trifluoroacetic acid salt]	≤ 1 nM	–
COc1ncc(Cc2cn(C)c(SCc3ccc(Oc4ccc(F)cc4)cc3)nc2=O)cn1 [E53, 2-[({4-[(4-fluorophenyl)oxy]phenyl}methyl)thio]-1-methyl-5-{[2-(methyloxy)-5-pyrimidinyl]methyl}-4(1H)-pyrimidinone]	≤ 10 nM	–
COc1ncc(Cc2c[nH]c(OCCc3ccc(Oc4ccc(Cl)c(C(F)(F)F)c4)cc3)nc2=O)cn1 [E24, 2-{[2-(4-{[4-Chloro-3-(trifluoromethyl)phenyl]oxy}phenyl)ethyl]oxy}-5-{[2-(methyloxy)-5-pyrimidinyl]methyl}-4(1H)-pyrimidinone]	≤ 1 nM	0.794 nM
O=c1nc(OCCc2ccc(Oc3ccc(Cl)c(C(F)(F)F)c3)c(F)c2)[nH]cc1Cc1cncnc1 [E31, 2-{[2-(4-{[4-Chloro-3-(trifluoromethyl)phenyl]oxy}-3-fluorophenyl)ethyl]oxy}-5-(5-pyrimidinylmethyl)-4(1H)-pyrimidinone trifluoroacetate]	≤ 1 nM	–
O=c1nc(NCCc2ccc(Oc3ccc(Cl)c(C(F)(F)F)c3)cc2)[nH]cc1Cc1cncnc1 [E11, 2-{[2-(4-{[4-Chloro-3-(trifluoromethyl)phenyl]oxy}phenyl)ethyl]amino}-5-(5-pyrimidinylmethyl)-4(1H)-pyrimidinone]	≤ 1 nM	1 nM
Cn1cc(Cc2c[nH]c(SCc3ccc(Oc4ccc(Cl)c(C(F)(F)F)c4)c(C#N)c3)nc2=O)c2ccccc21 [E81, 2-(4-chloro-3-(trifluoromethyl)phenoxy)-5-(((5-((1-methyl-1H-indol-3-yl)methyl)-4-oxo-1,4-dihydropyrimidin-2-yl)thio)methyl)benzonitrile]	–	25.1 nM
COc1ncc(Cc2c[nH]c(SCc3ccc(Oc4ccc(Cl)c(C(F)(F)F)c4)cc3)nc2=O)cn1 [E74, 2-{[(4-{[4-chloro-3-(trifluoromethyl)phenyl]oxy}phenyl)methyl]thio}-5-{[2-(methyloxy)-5-pyrimidinyl]methyl}-4(1H)-pyrimidinone]	≤ 1 nM	0.631 nM
Cn1cc(Cc2c[nH]c(OCCc3ccc(Oc4ccc(Cl)c(C(F)(F)F)c4)cc3)nc2=O)cn1 [E22, 2-{[2-(4-{[4-Chloro-3-(trifluoromethyl)phenyl]oxy}phenyl)ethyl]oxy}-5-[(1-methyl-1H-pyrazol-4-yl)methyl]-4(1H)-pyrimidinone trifluoroacetate]	–	0.794 nM
Cn1cc(Cc2c[nH]c(SCc3ccc(Oc4ccc(Cl)c(C(F)(F)F)c4)c(C#N)c3)nc2=O)cn1 [E58, 2-(4-chloro-3-(trifluoromethyl)phenoxy)-5-(((5-((1-methyl-1H-pyrazol-4-yl)methyl)-4-oxo-1,4-dihydropyrimidin-2-yl)thio)methyl)benzonitrile, trifluoroacetic acid salt]	≤ 1 nM	≤ 0.501 nM
COc1ncc(Cc2cn(C)c(OCCc3ccc(Oc4ccc(Cl)c(C(F)(F)F)c4)cc3)nc2=O)cn1 [E25, 2-{[2-(4-{[4-Chloro-3-(trifluoromethyl)phenyl]oxy}phenyl)ethyl]oxy}-1-methyl-5-{[2-(methyloxy)-5-pyrimidinyl]methyl}-4(1H)-pyrimidinone]	≤ 1 nM	–
COc1ncc(Cc2c[nH]c(SCc3ccc(Oc4ccc(F)cc4)cc3)nc2=O)cn1 [E52, 2-((4-(4-fluorophenoxy)benzyl)thio)-5-((2-methoxypyrimidin-5-yl)methyl)pyrimidin-4(1H)-one]	≤ 10 nM	–

Now from value to compound:

IC50 [1]	IC50 [2]	SMILES
≤ 1 nM	–	COc1ncc(Cc2c[nH]c(SCCc3ccc(Oc4ccc(Cl)c(C(F)(F)F)c4)c(C#N)c3)nc2=O)cn1 [E119, 2-{[4-chloro-3-(trifluoromethyl)phenyl]oxy}-5-{2-[(5-{[2-(methyloxy)-5-pyrimidinyl]methyl}-4-oxo-1,4-dihydro-2-pyrimidinyl)thio]ethyl}benzonitrile]
–	3.98 nM	O=c1nc(OCCc2ccc(Oc3ccc(Cl)c(C(F)(F)F)c3)cc2)[nH]cc1Cc1c(F)cc(F)cc1F [E129, 2-{[2-(4-{[4-chloro-3-(trifluoromethyl)phenyl]oxy}phenyl)ethyl]oxy}-5-[(2,4,6-trifluorophenyl)methyl]-4(1H)-pyrimidinone]
≤ 1 nM	–	Cn1cc(Cc2cncnc2)c(=O)nc1SCCc1ccc(Oc2ccc(Cl)c(C(F)(F)F)c2)cc1 [E116, 2-{[2-(4-{[4-chloro-3-(trifluoromethyl)phenyl]oxy}phenyl)ethyl]thio}-1-methyl-5-(5-pyrimidinylmethyl)-4(1H)-pyrimidinone]
≤ 1 nM	–	N#Cc1cc(CCSc2nc(=O)c(Cc3cncnc3)c[nH]2)ccc1Oc1ccc(Cl)c(C(F)(F)F)c1 [E118, 2-{[4-chloro-3-(trifluoromethyl)phenyl]oxy}-5-(2-{[4-oxo-5-(5-pyrimidinylmethyl)-1,4-dihydro-2-pyrimidinyl]thio}ethyl)benzonitrile]
≤ 10 nM	–	COc1ncc(Cc2c[nH]c(OCCc3ccc(Oc4c(F)cc(Cl)cc4F)cc3)nc2=O)cn1 [E181, 2-(4-(4-chloro-2,6-difluorophenoxy)phenethoxy)-5-((2-methoxypyrimidin-5-yl)methyl)pyrimidin-4(1H)-one]
≤ 10 nM	–	COc1ncc(Cc2c[nH]c(OCCc3ccc(Oc4ccc(C(F)(F)F)cn4)cc3)nc2=O)cn1 [E137, 5-((2-methoxypyrimidin-5-yl)methyl)-2-(4-((5-(trifluoromethyl)pyridin-2-yl)oxy)phenethoxy)pyrimidin-4(1H)-one]
≤ 1 nM	–	COc1ncc(Cc2c[nH]c(SCc3ccc(Oc4cccc(C(F)(F)F)c4)c(C#N)c3)nc2=O)cn1 [E100, 5-{[(5-{[2-(methyloxy)-5-pyrimidinyl]methyl}-4-oxo-1,4-dihydro-2-pyrimidinyl)thio]methyl}-2-{[3-(trifluoromethyl)phenyl]oxy}benzonitrile]
≤ 1 nM	–	N#Cc1cc(CSc2nc(=O)c(Cc3cncnc3)c[nH]2)ccc1Oc1cccc(C(F)(F)F)c1 [E96, 5-({[4-oxo-5-(5-pyrimidinylmethyl)-1,4-dihydro-2-pyrimidinyl]thio}methyl)-2-{[3-(trifluoromethyl)phenyl]oxy}benzonitrile]
–	≤ 0.501 nM	Cn1cc(Cc2c[nH]c(SCCc3ccc(Oc4ccc(Cl)c(C(F)(F)F)c4)cc3)nc2=O)cn1 [E112]
